Tested on: Sprague-Dawley rats
Test: Rat EEG assay (wake, REM, non-REM states)
Type: in vivo
Conditions: for number of wake and non-REM sleep bouts / wake bout duration: hourly bins, EEG; for wake promotion: male Sprague-Dawley rats, dosed in middle of inactive period, first 6 hours post-dosing; for time spent in REM sleep / time spent in non-REM sleep / time spent in wake: relative to vehicle treated animals, 6 hour recording; for normalized power in the 40-60 Hz range (EEG spectral analysis): wake EEG spectra, shift to higher frequencies
Experimental: The rat EEG assay was designed to measure electrical signals from the brain as a proxy for in vivo biological activity at the H3 receptor.
Specifically, animals were housed in a temperature-controlled recording room under a 12 hour/12 hour light/dark cycle, with food and water available ad libitum. Eight male Sprague-Dawley rats were implanted with chronic recording devices for continuous recordings of electroencephalograph (EEG) via telemetry (Data Sciences Inc). A repeated measures design was employed in which each rat received eight separate dosings of the compound being tested with a minimum of 3 days between doses. […] EEG data were scored visually in 10 second epochs for wake, REM, and non-REM states. Scored data were analyzed and expressed as time spent in each state per hour. Cumulative time spent in wake, non-REM, and REM states were calculated for the 6 hour recording period. To determine whether any of the pharmacological treatments affected the consolidation of behavioral states, the duration and number of bouts for each state were calculated in hourly bins. A “bout” consisted of a minimum of two consecutive 10-second epochs of a given state and ended with any single state change epoch. The EEG spectra during wake and non-REM sleep were analyzed offline with a fast Fourier transform algorithm (NeuroScore software, Data Sciences Inc) on all epochs without a visually detectable artifact. Wake EEG spectra were analyzed in 1 Hz bins. Data were analyzed using two-way repeated-measures ANOVA.
For both compounds, there was an increase in the time spent in wake, a decrease in the time spent in non-REM sleep, and no change in the time spent in REM sleep relative to vehicle treated animals.

Compound | number of wake and non-REM sleep bouts | wake bout duration | wake promotion | time spent in REM sleep | time spent in non-REM sleep | time spent in wake | normalized power in the 40-60 Hz range (EEG spectral analysis)
c1cn2cc(-c3ccc4c(c3)nc3n4CCCN(C4CCC4)CC3)ccc2n1 [Compound 59, 3-cyclobutyl-10-(imidazo[1,2-a]pyridin-6-yl)-1,2,3,4,5,6-hexahydrobenzo[4,5]imidazo[1,2-a][1,5]diazocine] | decrease | increase | wake promoting | no change | decrease | increase | increase
c1cn2cc(-c3ccc4c(c3)nc3n4CCN4CCCC[C@@H]4C3)ccc2n1 (single isomer, unassigned) [Compound 48] | decrease | increase | wake promoting | no change | decrease | increase | increase
